{"source": "a melting point compilation (Tetko et al.; mined from patent text by program, amines drawn as free bases though some values may be those of a salt)"}
{"units": {"melting point": "°C"}}
{"smiles": "O=C(O)COc1cccc2c1CCc1sc(SCCC(c3ccccc3)c3ccccc3)nc1-2", "melting point": "128 to 130"}
{"smiles": "CCCCCCCCc1ccc(OCC(=O)Cn2cc(C(=O)O)c3ccccc32)cc1", "melting point": "182 to 183"}
{"smiles": "CCCCc1ccc(-c2ccc(CCC3OCC(CCC)CO3)cc2)c(F)c1", "note": "(centres undefined)", "melting point": 36}
{"smiles": "CC(=O)Oc1cc(C(=O)Cl)cc(OC(C)=O)c1OC(C)=O", "melting point": "108 to 110"}
{"smiles": "N#CCc1cccc2cnccc12", "melting point": "130 to 131"}
{"smiles": "CN1CCCC1=NC(=O)Nc1cccc(Cl)c1", "melting point": "135 to 136"}
{"smiles": "CCC(=O)c1c[nH]c2cc(C(=O)OC)ccc12", "melting point": "229 to 231"}
{"smiles": "CC(=O)c1ccc(N2CCN(Cc3cn4cc(Cl)ccc4n3)CC2)cc1", "melting point": "186 to 187"}
{"smiles": "Cn1nc(C(=O)NCc2ccc(Cl)cc2)c(=O)c2cc(C#CCO)cnc21", "melting point": "201 to 206"}
{"smiles": "O=C(O)c1ccccc1Oc1cc(Cl)c(Cl)cc1NS(=O)(=O)c1ccc(Cl)cc1", "melting point": "220 to 221"}
{"smiles": "O=C1c2ccccc2COc2ccc(CCN3CCC(n4c(=O)[nH]c5ccccc54)CC3)cc21", "melting point": "116 to 120"}
{"smiles": "COc1cc(C)cc(S(=O)(=O)c2cccc(F)c2C#N)c1", "melting point": "160 to 162"}
{"smiles": "O=C(O)CNC(=Nc1ccccc1)NC1CCCCC1", "melting point": "160 to 165"}
{"smiles": "O=C1Nc2cc(Cl)ccc2C(=O)C1c1csc2ccccc12", "note": "(centres undefined)", "melting point": 320}
{"smiles": "CC(=O)Nc1ccc(N2C(=O)CCCC2c2ccc(Cl)c(Cl)c2)cc1", "note": "(centres undefined)", "melting point": "267 to 268"}
{"smiles": "O=[N+]([O-])c1cc(CO)ccc1Oc1ccc(OCc2ccccc2)cc1", "melting point": "72 to 73"}
{"smiles": "COc1ccc(N2CCN(c3c(C)c(C)c4c(c3-c3ccc(N(C)C)cc3)CC(C)(C)O4)CC2)cc1", "melting point": "177 to 179"}
{"smiles": "Cn1ncnc1COc1nn2c(-c3ccccc3F)nncc2c1-c1cccc(C#N)c1", "melting point": "194 to 196"}
{"smiles": "Cn1c(C(F)(F)F)cc(=O)n(-c2c(F)ccc3nc(Cl)sc23)c1=O", "melting point": "69 to 71"}
{"smiles": "CCCCc1nc(=O)n2nc(-c3ccc(F)cc3)cc2[nH]1", "melting point": 238}
{"smiles": "Cc1ccc(-c2nc(N)ncc2-c2ccc(=O)n(C(C)C)n2)cc1", "melting point": 224}
{"smiles": "CCCC1CCc2cc(NC(=O)OCC)ccc2O1", "note": "(centres undefined)", "melting point": 94}
{"smiles": "CCSc1nc(N)nc2c1ncn2C1C=CC(CO)C1", "note": "(centres undefined)", "melting point": "123 to 125"}
{"smiles": "COc1cnc(N)c2ccccc12", "melting point": "112 to 114"}
{"smiles": "COc1ccc(CCC(C)N(Cc2ccccc2)CC(O)c2ccc(OCc3ccccc3)c(N)c2)cc1OC", "note": "(centres undefined)", "melting point": 115}
{"smiles": "CS(=O)(=O)c1ccc(C(=O)CC(=O)C2CC2)c(Cl)c1-c1nccs1", "melting point": "146 to 147"}
{"smiles": "CC(C)Oc1cc(/C=C/C(=O)O)n(Cc2ccc(Cl)cc2Cl)n1", "melting point": "170 to 171"}
{"smiles": "CCOC(=O)c1c(N2CCN(C(=O)c3cccs3)CC2)c2sccc2[nH]c1=O", "melting point": 252}
{"smiles": "Cc1cc(=O)n2cccc(OCc3ccccc3C(F)(F)F)c2n1", "melting point": "130 to 132"}
{"smiles": "CCC(Nc1cc(C)nc(Oc2c(C)cc(Cl)cc2C)c1C(=O)OC)C(C)O", "note": "(centres undefined)", "melting point": "133 to 135"}
{"smiles": "N#Cc1ccc(-c2csc(-n3c(=O)oc4ccccc43)n2)cc1", "melting point": "244 to 245"}
{"smiles": "Cc1cc2c(c(N3CC[C@H](N(C)C)C3)c1-c1ccccc1)OC(C#N)(C(=O)N1CCCCC1)N2", "note": "(some centres undefined)", "melting point": "170 to 173"}
{"smiles": "Cc1nc2cccc3n(CCCNS(=O)(=O)C(F)(F)F)c(=O)c1n23", "melting point": "168 to 169"}
{"smiles": "COCc1c(S(C)(=O)=O)ccc(C(=O)O)c1Cl", "melting point": "137 to 141"}
{"smiles": "COC(=O)c1cc(C(C)C)sc1NC(=O)Nc1ccc(C)cc1", "melting point": "49 to 51"}
{"smiles": "NS(=O)(=O)C12CC3CC(CC(C3)C1)C2", "melting point": "191 to 193"}
{"smiles": "O=Cc1c(N2CCCC2)n(C2OC(CO)C(O)C2O)c2cc(Cl)c(Cl)cc12", "note": "(centres undefined)", "melting point": "131 to 134"}
{"smiles": "CC(C)OC(=O)c1cc(-n2c(N)c(C#N)cnc2=O)c(F)cc1Cl", "melting point": "212 to 213"}
{"smiles": "Cc1cc(C)nc(NCC(O)CO)n1", "note": "(centres undefined)", "melting point": "124 to 127"}
{"smiles": "CCOC(=O)c1c(O)c2ccc(Br)cc2c(=O)n1CC1CC1", "melting point": "105 to 106"}
{"smiles": "COc1ccc2c(c1)CCC2=NNS(=O)(=O)c1ccc(C)cc1", "melting point": "195 to 196"}
{"smiles": "Cc1c(C(=O)c2ccc(F)cc2)n(N2C(=O)c3ccccc3C2=O)c2ccccc12", "melting point": "227 to 228"}
{"smiles": "c1ccc(COc2cccc3c2OCO3)cc1", "melting point": "62 to 63"}
{"smiles": "CCOc1cc(C(C#N)N2C(=O)c3cccc([N+](=O)[O-])c3C2=O)ccc1OC", "note": "(centres undefined)", "melting point": "155 to 157"}
{"smiles": "CN(C)CCC=C1c2ccccc2COc2ccc(CCO)cc21", "melting point": "100 to 102"}
{"smiles": "CNC(=O)[C@H]1CN(c2ccc3c(c2)sc(=O)n3C)C(=O)O1", "melting point": "264 to 267"}
{"smiles": "CC(=O)Oc1ccccc1C(=O)ON(C(N)=O)C(C)c1cc2ccccc2s1", "note": "(centres undefined)", "melting point": "141 to 143"}
{"smiles": "CCOC(=O)c1cnc2n(c1=O)-c1ccccc1N(C=O)C2", "melting point": "172 to 174"}
{"smiles": "CCOC(=O)C(=O)Nc1cc(N2CCOCC2)ccc1OC", "melting point": "95 to 97"}
{"smiles": "CC[C@H](NC(=O)OC(C)(C)C)c1nc2c(C(F)(F)F)cccc2c(O)c1C(=O)Nc1nccs1", "melting point": "260 to 262"}
{"smiles": "O=c1[nH]c(N2CCOCC2)nc2c1C=CCC2", "melting point": "228 to 230"}
{"smiles": "O=C(CC=C(Cl)Cl)Oc1ccc([N+](=O)[O-])cc1", "melting point": "80 to 90"}
{"smiles": "O=[N+]([O-])c1ccc(Cc2nc(-c3ccncc3)cs2)cc1", "melting point": "140 to 142"}
{"smiles": "Nc1nc(Cl)cc(Oc2ccc3c(C(=O)Nc4cccc(C(F)(F)F)c4)cnn3c2)n1", "melting point": "219 to 221"}
{"smiles": "O=C(O)COc1cccc2cc(COCC(c3ccccc3)c3ccccc3)oc12", "melting point": "141 to 142"}
{"smiles": "CCc1c(C)[nH]c(=O)n(-c2cc(C(=O)OC(C)C)c(Cl)cc2F)c1=O", "melting point": "176 to 178"}
{"smiles": "CCc1nn(C2CCCC2)c2cc(C(=O)Nc3c(Cl)cccc3Cl)ccc12", "melting point": "177 to 179"}
{"smiles": "C=CCn1c2c(c3cc(OCCN(C)C)ccc31)C(=O)c1cc(OC)c(OC)cc1-2", "melting point": 138}
{"smiles": "CN(C1CCS(=O)(=O)C1)S(=O)(=O)c1ccc(Nc2nccc(Nc3ccc(F)cc3)n2)cc1", "note": "(centres undefined)", "melting point": "236 to 240"}
{"smiles": "COc1ccc(C=CBr)cc1O", "melting point": "64 to 66"}
{"smiles": "CCOC(=O)CN1C(=O)C(=S2CN(CC)c3ccccc32)SC1=S", "note": "(centres undefined)", "melting point": "250 to 252"}
{"smiles": "COc1ccc(Cc2nc3c(N)nc4ccccc4c3n2CCCCNC(=O)c2ccc3ccccc3n2)cc1", "melting point": "95.1 to 97.4"}
{"smiles": "O=C(O)c1ccc2cnc3ccccc3c2c1", "melting point": 155}
{"smiles": "CN1CCC(C(=O)Nc2ccc(CN(C)C3CCOCC3)cc2)=Cc2cc(Br)ccc21", "melting point": "62 to 64"}
{"smiles": "O=C(O)c1ccc(-c2ccc(I)cc2)cc1", "melting point": "303 to 305"}
{"smiles": "CCCCCCCCCCCC(=O)NC(CCCCNN=C=S)C(=O)O", "note": "(centres undefined)", "melting point": "37 to 39"}
{"smiles": "CCC(C)S(=O)(=O)NC(=O)Nc1ccc(Cl)cc1", "note": "(centres undefined)", "melting point": "172 to 174"}
{"smiles": "Cc1sc(-c2ccc(C(F)(F)F)cc2)nc1CCOc1ccc(CCC(=O)O)cc1", "melting point": "142 to 147"}
{"smiles": "Nc1cc(N2CCCNCC2)nc(N)n1", "melting point": "62 to 72"}
{"smiles": "CCOC(=O)C1CNc2ccc(C)cc2O1", "note": "(centres undefined)", "melting point": "90 to 92"}
{"smiles": "Cc1noc(-c2ncn3c2[C@@H]2CCN2C(=O)c2c(Cl)cccc2-3)n1", "melting point": "239 to 240"}
{"smiles": "COC(=O)c1ccc2c(c1)c(=O)n(Cc1ccccc1)c(=O)n2C", "melting point": 179}
{"smiles": "COc1ccc(OCC(O)CN2CCN(c3ccccc3C(=O)O)CC2C)c(C(C)(C)C)c1", "note": "(centres undefined)", "melting point": "205 to 208"}
{"smiles": "CS(=O)Cc1cccc(-c2nc(=O)c3ccccc3s2)n1", "note": "(centres undefined)", "melting point": "184 to 186"}
{"smiles": "CC(O)(CCCl)c1ccc(-c2ccc(Cl)cc2)cc1", "note": "(centres undefined)", "melting point": "98 to 100"}
{"smiles": "CC(CN1CCN(C(c2ccc(F)cc2)c2ccc(F)cc2)CC1)Cn1c(=O)[nH]c2ccccc21", "note": "(centres undefined)", "melting point": 176}
{"smiles": "O=C(O)c1ccc(C=CC(=O)c2ccccc2)cc1", "melting point": "222 to 224"}
{"smiles": "O=C(O)c1cccnc1Oc1cccc(Cl)c1", "melting point": "161 to 164"}
{"smiles": "COc1cc(C=CC(=O)c2ccccc2[N+](=O)[O-])cc(OC)c1", "melting point": "98.4 to 98.9"}
{"smiles": "Cc1c(NCCNC(=O)OC(C)(C)C)c([N+](=O)[O-])c2nnnn2c1C", "melting point": "145 to 147"}
{"smiles": "O=C(Nc1cc(F)c(N2CC(=O)N(COC3CCCCO3)C2)c(F)c1)OCc1ccccc1", "note": "(centres undefined)", "melting point": "116 to 118"}
{"smiles": "COc1cc(OC)nc(C(=O)c2cccnc2C(=O)O)n1", "melting point": "71 to 73"}
{"smiles": "COC(=O)[C@H]1CC[C@H](n2ccn(-c3ccc(C4(C)CCN(C(=O)C(F)(F)F)CC4)cc3)c2=O)CC1", "melting point": "182 to 184"}
{"smiles": "CC=COC1=C(O)C(CCC=CCCCCCCCCCCCCCC)OC1=O", "note": "(centres undefined)", "melting point": "42 to 45"}
{"smiles": "CCN(C(=O)OC)c1cn2cc(Sc3ccccc3)ccc2n1", "melting point": "130 to 131"}
{"smiles": "COC(=O)c1ccc(C)cc1N", "melting point": "41 to 43"}
{"smiles": "COc1ccc2c(c1)sc1nc(N)nc(=Nc3ccc(O)cc3)n12", "melting point": "> 255"}
{"smiles": "NC(=O)/C=C/c1cc([N+](=O)[O-])ccc1Cl", "melting point": "208 to 210"}
{"smiles": "COC(=O)c1ncoc1-c1ccc([N+](=O)[O-])cc1Cl", "melting point": "121 to 122"}
{"smiles": "O=C(CCl)N1CC(c2ccc(Cl)cc2)Sc2ccccc21", "note": "(centres undefined)", "melting point": "94 to 95"}
{"smiles": "CCn1ncc2c(NCC3CCCCC3)c3cc(C(=O)O)ccc3nc21", "melting point": 240}
{"smiles": "CCCC[C@]1(CC)CS(=O)(=O)c2cc3c(cc2[C@@H](c2ccccc2)N1)OCO3", "melting point": "71 to 73"}
{"smiles": "N#Cc1cnc2c(sc3ccccc32)c1Nc1ccc(Oc2ccccc2)cc1", "melting point": "230 to 233"}
{"smiles": "COc1cc(C=O)ccc1OCCCl", "melting point": "60 to 61"}
{"smiles": "COc1ncnc2ccsc12", "melting point": "92 to 94"}
{"smiles": "CC(O)(CC(=O)O)c1ccc(-c2ccc(Cl)c(Cl)c2)cc1", "note": "(centres undefined)", "melting point": "124 to 126"}
{"smiles": "CC(=O)Oc1ccccc1C(=O)NC(Cl)C(Cl)(Cl)Cl", "note": "(centres undefined)", "melting point": "88 to 90"}
{"smiles": "CC(=O)NCc1cn(-c2ccc(-n3cncn3)c(F)c2)nn1", "melting point": 223}
{"smiles": "O=C(O)c1ccc(OCC2CCCCC2)c([N+](=O)[O-])c1", "melting point": "200 to 202"}
{"smiles": "CN(C)c1nc(=O)[nH]n1C", "melting point": 222}
{"smiles": "Cn1cc(-c2ccc3nc(NC(=O)c4ccc(C(C)(C)C)nc4)cn3n2)cn1", "melting point": "251 to 252"}
{"smiles": "O=C1COc2cc(SCc3ccc(Cl)cc3)ccc2N1", "melting point": "174 to 175"}
{"smiles": "CCCn1c(COCC)nc2c(N)nc3ccc(OC4CCN(C(=O)C(C)C)CC4)cc3c21", "melting point": "177 to 179"}
{"smiles": "O=C1CCCCC(CO)N1", "note": "(centres undefined)", "melting point": 100}
